In the supplement of paper PMC10307832:

Columns and labels:
Experiment in all cases: relative viability (nuclei count vs DMSO), 5 days (fraction); higher = more cells survive
QS11 + Navitoclax = compound: C1CC2=C(C1)C=C(C=C2)OC3=NC(=C4C(=N3)N(C=N4)CC5=CC=C(C=C5)C6=CC=CC=C6)N[C@@H](CC7=CC=CC=C7)CO [QS11] + CC1(C)CCC(c2ccc(Cl)cc2)=C(CN2CCN(c3ccc(C(=O)NS(=O)(=O)c4ccc(N[C@H](CCN5CCOCC5)CSc5ccccc5)c(S(=O)(=O)C(F)(F)F)c4)cc3)CC2)C1 [Navitoclax] (partner 0.5 µM)
Outline: (§1)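 Values are medians from duplicate plates. Each reflects relative viability, defined as the nuclei count of treated wells over that of vehicle wells. Lung cancer cell lines in 1536-well plates were pin-tool dosed one day after seeding with one drug alone or with a fixed anchor-drug dose plus five library-drug doses (not always all listed) in √10 steps, then fixed, stained and imaged at 4× after 5 days.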

QS11 + Alpelisib = compound: C1CC2=C(C1)C=C(C=C2)OC3=NC(=C4C(=N3)N(C=N4)CC5=CC=C(C=C5)C6=CC=CC=C6)N[C@@H](CC7=CC=CC=C7)CO [QS11] + Cc1nc(NC(=O)N2CCC[C@H]2C(N)=O)sc1-c1ccnc(C(C)(C)C(F)(F)F)c1 [Alpelisib] (partner 2 µM)
Outline: as §1

AZ628 + Trametinib = compound: CC1=C(C=C(C=C1)NC(=O)C2=CC(=CC=C2)C(C)(C)C#N)NC3=CC4=C(C=C3)N=CN(C4=O)C [AZ628] + CC(=O)Nc1cccc(-n2c(=O)n(C3CC3)c(=O)c3c(Nc4ccc(I)cc4F)n(C)c(=O)c(C)c32)c1 [Trametinib] (partner 0.02 µM)
Outline: as §1

AZ628 + Olaparib = compound: CC1=C(C=C(C=C1)NC(=O)C2=CC(=CC=C2)C(C)(C)C#N)NC3=CC4=C(C=C3)N=CN(C4=O)C [AZ628] + O=C(c1cc(Cc2n[nH]c(=O)c3ccccc23)ccc1F)N1CCN(C(=O)C2CC2)CC1 [Olaparib] (partner 8 µM)
Outline: as §1

| Cell Line | relative viability (QS11 + Navitoclax; first compound 0.08 µM) | relative viability (QS11 + Navitoclax; first compound 0.253 µM) | relative viability (QS11 + Navitoclax; first compound 0.8 µM) | relative viability (QS11 + Navitoclax; first compound 2.53 µM) | relative viability (QS11 + Navitoclax; first compound 8 µM) | relative viability (QS11 + Alpelisib; first compound 0.08 µM) | relative viability (QS11 + Alpelisib; first compound 0.253 µM) | relative viability (QS11 + Alpelisib; first compound 0.8 µM) | relative viability (QS11 + Alpelisib; first compound 2.53 µM) | relative viability (QS11 + Alpelisib; first compound 8 µM) | relative viability (AZ628 + Trametinib; first compound 0.08 µM) | relative viability (AZ628 + Trametinib; first compound 0.253 µM) | relative viability (AZ628 + Trametinib; first compound 0.8 µM) | relative viability (AZ628 + Trametinib; first compound 2.53 µM) | relative viability (AZ628 + Trametinib; first compound 8 µM) | relative viability (AZ628 + Olaparib; first compound 0.08 µM) | relative viability (AZ628 + Olaparib; first compound 0.253 µM) | relative viability (AZ628 + Olaparib; first compound 0.8 µM) | relative viability (AZ628 + Olaparib; first compound 2.53 µM) | relative viability (AZ628 + Olaparib; first compound 8 µM) |
| --- | --- | --- | --- | --- | --- | --- | --- | --- | --- | --- | --- | --- | --- | --- | --- | --- | --- | --- | --- | --- |
| NCI-H1975 | 1.09 | 1.2 | 1.02 | 1.59 | 1.26 | 0.654 | 0.727 | 0.747 | 0.887 | 0.9 | 0.331 | 0.272 | 0.228 | 0.259 | 0.288 | 0.613 | 0.674 | 0.616 | 0.749 | 0.392 |
| BEN | 0.0566 | 0.0797 | 0.0702 | 0.047 | 0.0634 | 0.772 | 1.22 | 1.12 | 1.01 | 1.29 | 1.12 | 1.01 | 0.806 | 1.02 | 0.783 | 1.26 | 0.912 | 0.995 | 1.03 | 1.02 |
| NCI-H1437 | 1.12 | 1.22 | 0.718 | 0.943 | 0.936 | 1.1 | 1.13 | 0.834 | 0.9 | 0.879 | 0.494 | 0.549 | 0.471 | 0.557 | 0.566 | 0.584 | 0.605 | 0.767 | 0.597 | 0.54 |
| NCI-H1734 | 0.803 | 0.96 | 0.751 | 0.568 | 0.663 | 0.681 | 0.719 | 0.697 | 0.581 | 0.65 | 0.42 | 0.386 | 0.313 | 0.344 | 0.301 | 0.684 | 0.584 | 0.516 | 0.6 | 0.382 |
| NCI-H596 | 0.94 | 0.961 | 1.07 | 0.969 | 1.24 | 0.4 | 0.494 | 0.467 | 0.468 | 0.443 | 0.779 | 0.711 | 0.622 | 0.786 | 0.756 | 0.76 | 0.793 | 0.703 | 0.799 | 0.651 |
| LOU-NH91 | 0.626 | 0.572 |  | 0.657 | 0.723 | 0.687 | 0.636 |  | 0.691 | 0.697 | 0.795 | 0.787 | 0.713 | 0.726 | 0.668 | 0.935 | 0.94 | 0.965 | 0.936 | 0.764 |
| NCI-H2342 |  |  |  |  |  |  |  |  |  |  | 0.839 | 0.878 | 0.907 | 0.752 | 0.978 | 0.447 | 0.401 | 0.479 | 0.449 | 0.431 |
| NCI-H522 |  |  |  |  |  |  |  |  |  |  | 0.768 | 0.745 | 0.678 | 0.732 | 0.584 | 0.643 | 0.691 | 0.602 | 0.689 | 0.522 |
| SK-MES-1 | 1.43 | 1.25 | 1.21 | 1.45 | 1.37 | 0.997 | 0.919 | 0.918 | 0.886 | 0.849 | 0.32 | 0.318 | 0.308 | 0.262 | 0.369 | 0.693 | 0.824 | 0.9 | 0.737 | 0.392 |
| UMC-11 | 0.293 | 0.308 | 0.298 | 0.424 | 0.54 | 0.939 | 1.15 | 1.01 | 1.08 | 1.02 | 0.713 | 0.764 | 0.734 | 0.691 | 0.693 | 0.393 | 0.357 | 0.291 | 0.344 | 0.331 |
| LK-2 | 0.763 | 0.888 | 0.975 | 0.762 | 1.11 | 1.01 | 1.15 | 1.21 | 0.868 | 1.59 | 0.332 | 0.468 | 0.251 | 0.27 | 0.301 | 0.874 | 0.549 | 0.684 | 0.689 | 0.309 |
| CAL-12T | 1.18 | 1.39 | 1.15 | 1.08 | 1.14 | 1.28 | 1.13 | 1.25 | 0.952 | 1.06 | 0.295 | 0.248 | 0.259 | 0.193 | 0.305 | 0.713 | 0.68 | 0.781 | 0.637 | 0.457 |
| PC-3 [JPC-3] | 0.738 | 0.884 | 0.771 | 0.84 | 0.938 | 1.07 | 0.998 | 1.1 | 1.05 | 1.03 | 0.685 | 0.579 | 0.647 | 0.574 | 0.386 | 1.1 | 1.16 | 1.22 | 1.23 | 1.1 |
| NCI-H1651 | 1.13 | 0.998 | 0.936 | 0.98 | 0.839 | 1.06 | 1.1 | 0.822 | 0.896 | 0.713 | 0.848 | 0.83 | 0.858 | 0.826 | 0.77 | 0.171 | 0.186 | 0.172 | 0.184 | 0.191 |
| NCI-H650 |  |  |  |  |  | 0.988 | 1 | 1.14 | 0.909 | 1.18 | 0.568 | 0.393 | 0.357 | 0.365 | 0.282 | 0.43 | 0.462 | 0.482 | 0.512 | 0.627 |
| HOP-62 | 1.07 | 1.15 | 1.04 | 0.785 | 1.22 | 0.968 | 0.927 | 0.956 | 0.85 | 0.535 | 0.197 | 0.155 | 0.15 | 0.15 | 0.188 | 0.543 | 0.359 | 0.633 | 0.68 | 0.39 |
| LC-2-ad | 0.407 | 0.357 | 0.488 | 0.335 | 0.384 | 0.93 | 0.853 | 0.698 | 1.08 | 0.779 | 0.731 | 0.669 | 0.529 | 0.601 | 0.427 | 0.712 | 0.646 | 0.823 | 0.736 | 0.681 |
